Experimental data taken from patent publication US8551984B2, “Aminopyrimidines as SYK inhibitors” (Merck Sharp & Dohme Corp., priority 2009, dated 2013).
Where two headings read alike, the source gives them in different places.

Target: rhSYK (Homo sapiens, UniProt P43405)
[1] = read-out: rhSYK Activity, class symbol, where two forms are listed, one symbol per form
[2] = read-out: rhSYK Activity, Table 119, two symbols in a cell = one per listed form
[3] = read-out: rhSYK activity, class symbol given

Compound | IC50 [1] | further results
COc1cc(C(C)(O)c2ncc(-c3cc(C)cc(Nc4nccc(C(F)(F)F)n4)c3)s2)ccc1C(=O)O (single isomer, unassigned) [Example 4A-66] | < 100 nM | 
Cc1cc(Nc2nccc(C(F)(F)F)n2)cc(-c2cnc(C(C)(O)c3ccc(Br)nc3)s2)c1 (single isomer, unassigned) [Example 4A-68] | < 100 nM | 
Cc1cc(Nc2nccc(C(F)(F)F)n2)cc(-c2cnc(C(C)(O)c3ccc(Br)nc3)s2)c1 (single isomer, unassigned) [Example 4A-69] | < 100 nM | 
Cc1cc(Nc2nccc(C(F)(F)F)n2)cc(-c2cnc(C(O)(CO)C(F)(F)F)s2)c1 (single isomer, unassigned) [Example 6-8] | < 100 nM | 
Cc1cc(Nc2nccc(C(F)(F)F)n2)cc(-c2cnc(C(O)(CO)C(F)(F)F)s2)c1 (single isomer, unassigned) [Example 6-9] | < 100 nM | 
Cc1cc(Nc2nccc(C(F)(F)F)n2)cc(-c2cnc(C(C)(O)c3ccc(C(N)=O)cc3)s2)c1 (single isomer, unassigned) [Example 117-21] |  | IC50 (read-out: rhSYK Activity, Table 117): < 100 nM
Cc1cc(Nc2nccc(C(F)(F)F)n2)cc(-c2cnc(C3(O)CCC(C(N)=O)C3)s2)c1 (single isomer, unassigned) [Example 119-1] |  | IC50 [2]: < 100 nM
Cc1cc(Nc2nccc(C(F)(F)F)n2)cc(-c2cnc(C3(O)CCC(C(N)=O)C3)s2)c1 (single isomer, unassigned) [Example 119-3] |  | IC50 [2]: < 100 nM
Cc1cc(Nc2nccc(C(F)(F)F)n2)cc(-c2cnc(C3(O)CCC(C(N)=O)C3)s2)c1 (single isomer, unassigned) [Example 119-4] |  | IC50 [2]: < 100 nM
Cc1cc(Nc2nccc(C)n2)cc(-c2cnc(C3(O)CCC(C(N)=O)C(C)C3)s2)c1 (single isomer, unassigned) [Example 119-6] |  | IC50 [2]: < 100 nM
Cc1cc(Nc2nccc(C(F)(F)F)n2)cc(-c2cnc(C3(O)CCC(C(N)=O)C(C)C3)s2)c1 (single isomer, unassigned) [Example 119-112] |  | IC50 [2]: < 100 nM
O=C(c1ccccc1)N1CCC(O)(c2ncc(-c3cccc(Nc4nccc(C(F)(F)F)n4)c3)s2)CC1 [4D-6] | < 100 nM | 
Cc1cc(Nc2nccc(C(F)(F)F)n2)cc(-c2cnc(C3(O)CCC(O)CC3)s2)c1 (stereo not drawn) [8(2), trans-1-[5-(3-methyl-5-{[4-(trifluoromethyl)pyrimidin-2-yl]amino}phenyl)-1,3-thiazol-2-yl]-cyclohexane-1,4-diol] |  | IC50 [3]: < 100 nM
Cc1cc(Nc2nccc(C(F)(F)F)n2)cc(-c2cnc([C@]3(O)CC[C@@](C)(O)CC3)s2)c1 [9(2), cis-1-methyl-4-[5-(3-methyl-5-{[4-(trifluoromethyl)pyrimidin-2-yl]amino}phenyl)-1,3-thiazol-2-yl]cyclohexane-1,4-diol] |  | IC50 [3]: < 100 nM
Cc1cc(Nc2nccc(C(F)(F)F)n2)cc(-c2cnc([C@]3(O)CC[C@@H](C(=O)O)CC3)s2)c1 [33(1)-K, Potassium cis-4-hydroxy-4-[5-(3-methyl-5-{[4-(trifluoromethyl)pyrimidin-2-yl]amino}phenyl)-1,3-thiazol-2-yl]cyclohexanecarboxylate] |  | IC50 [3]: < 100 nM
Cc1cc(Nc2nccc(C(F)(F)F)n2)cc(-c2cnc(C3(O)CCC(C(=O)O)CC3)s2)c1 (stereo not drawn) [33(1)-NA, Sodium cis-4-hydroxy-4-[5-(3-methyl-5-{[4-(trifluoromethyl)pyrimidin-2-yl]amino}phenyl)-1,3-thiazol-2-yl]cyclohexanecarboxylate] |  | IC50 [3]: < 100 nM
Cc1cc(Nc2nccc(C(F)(F)F)n2)cc(-c2cnc([C@]3(O)CC[C@H](C(=O)O)CC3)s2)c1 [33(2)-K, Potassium trans-4-hydroxy-4-[5-(3-methyl-5-{[4-(trifluoromethyl)pyrimidin-2-yl]amino}phenyl)-1,3-thiazol-2-yl]cyclohexanecarboxylate] |  | IC50 [3]: < 100 nM
Cc1cc(Nc2nccc(C(F)(F)F)n2)cc(-c2cnc(C3(O)CCC(C#N)CC3)s2)c1 (stereo not drawn) [37(1), cis-4-hydroxy-4-[5-(3-methyl-5-{[4-(trifluoromethyl)pyrimidin-2-yl]amino}phenyl)-1,3-thiazol-2-yl]cyclohexanecarbonitrile] |  | IC50 [3]: < 100 nM
Cc1cc(Nc2nccc(C(F)(F)F)n2)cc(-c2cnc(C3(O)CCC(C#N)CC3)s2)c1 (stereo not drawn) [37(2), trans-4-hydroxy-4-[5-(3-methyl-5-{[4-(trifluoromethyl)pyrimidin-2-yl]amino}phenyl)-1,3-thiazol-2-yl]cyclohexanecarbonitrile] |  | IC50 [3]: < 100 nM
Cc1cc(Nc2nccc(C(F)(F)F)n2)cc(-c2cnc([C@]3(O)CC[C@H](C(N)=O)CC3)s2)c1 [38(1), trans-4-hydroxy-4-[5-(3-methyl-5-{[4-(trifluoromethyl)pyrimidin-2-yl]amino}phenyl)-1,3-thiazol-2-yl]cyclohexanecarboxamide] |  | IC50 [3]: < 100 nM
Cc1cc(Nc2nccc(C(F)(F)F)n2)cc(-c2cnc(C3(O)CCC(C(N)=O)CC3)s2)c1 (stereo not drawn) [38(2), cis-4-hydroxy-4-[5-(3-methyl-5-{[4-(trifluoromethyl)pyrimidin-2-yl]amino}phenyl)-1,3-thiazol-2-yl]cyclohexanecarboxamide] |  | IC50 [3]: < 100 nM

Compound | IC50 [1] | further results
Cc1cc(Nc2nccc(C(F)(F)F)n2)cc(-c2cnc(C(C)(O)CO)s2)c1 (centres unmarked) [Ex 5-5] | < 100 nM | 
Cc1cc(Nc2nccc(C(F)(F)F)n2)cc(-c2cnc(C(C)(O)CO)s2)c1 (centres unmarked) [Ex 5-6] | < 100 nM | 
Cc1cc(Nc2nccc(C(F)(F)F)n2)cc(-c2cnc(C(C)(O)CO)s2)c1 (centres unmarked) [Ex 5-7] | < 100 nM | 
Cc1cc(Nc2ncc(F)c(C)n2)cc(-c2cnc(C(C)(O)CO)s2)c1 (centres unmarked) [Ex 5-8] | < 100 nM | 
Cc1cc(Nc2ncc(F)c(C)n2)cc(-c2cnc(C(C)(O)CO)s2)c1 (centres unmarked) [Ex 5-9] | < 100 nM | 
Cc1cc(Nc2ncc(F)c(C)n2)cc(-c2cnc(C(C)(O)CO)s2)c1 (centres unmarked) [Ex 5-10] | < 100 nM | 
Cc1cc(Nc2ncc(Cl)cn2)cc(-c2cnc(C(C)(O)CO)s2)c1 (centres unmarked) [Ex 5-11] | 100 to 1000 nM | 
Cc1cc(Nc2ncc(Cl)cn2)cc(-c2cnc(C(C)(O)CO)s2)c1 (centres unmarked) [Ex 5-12] | < 100 nM | 
Cc1cc(Nc2ncc(Cl)cn2)cc(-c2cnc(C(C)(O)CO)s2)c1 (centres unmarked) [Ex 5-13] | 100 to 1000 nM | 
Cc1cc(Nc2ncc(F)c(C3CC3)n2)cc(-c2cnc(C(C)(O)CO)s2)c1 (centres unmarked) [Ex 5-16] | < 100 nM | 
Cc1cc(Nc2ncc(F)c(C3CC3)n2)cc(-c2cnc(C(C)(O)CO)s2)c1 (centres unmarked) [Ex 5-17] | < 100 nM | 
Cc1cc(Nc2ncc(F)c(C3CC3)n2)cc(-c2cnc(C(C)(O)CO)s2)c1 (centres unmarked) [Ex 5-18] | < 100 nM | 
COc1ccc(Nc2nccc(C(F)(F)F)n2)cc1-c1cnc(C2(O)CCC2)s1 [Example 1-1] | < 100 nM | 
OC1(c2ncc(-c3cc(Nc4nccc(C(F)(F)F)n4)ccc3Cl)s2)CCC1 [Example 1-2] | 100 to 1000 nM | 
OC1(c2ncc(-c3cc(Nc4nccc(C(F)(F)F)n4)ccc3OC(F)(F)F)s2)CCC1 [Example 1-3] | 100 to 1000 nM | 
OC1(c2ncc(-c3cc(Nc4nccc(C(F)(F)F)n4)ccc3OCc3ccccc3)s2)CCC1 [Example 1-4] | 100 to 1000 nM | 
Oc1ccc(Nc2nccc(C(F)(F)F)n2)cc1-c1cnc(C2(O)CCC2)s1 [Example 1-5] | < 100 nM | 
Cc1ccc(Nc2nccc(C(F)(F)F)n2)cc1-c1cnc(C2(O)CCC2)s1 [Example 1-6] | < 100 nM | 
CC(C)(O)c1ncc(-c2cccc(Nc3nccc(C(F)(F)F)n3)c2)s1 [Example 4A-1] | < 100 nM | 
CC(O)(c1ncc(-c2cccc(Nc3nccc(C(F)(F)F)n3)c2)s1)C(F)(F)F (centres unmarked) [Example 4A-2] | < 100 nM | 
CC(C)(C)C(C)(O)c1ncc(-c2cccc(Nc3nccc(C(F)(F)F)n3)c2)s1 (centres unmarked) [Example 4A-6] | 100 to 1000 nM | 

Compound | IC50 [1] | further results
OC(c1ccccc1)(c1ncc(-c2cccc(Nc3nccc(C(F)(F)F)n3)c2)s1)C(F)F (centres unmarked) [Example 4A-7] | 100 to 1000 nM | 
CN(C)CC(C)(C)C(O)c1ncc(-c2cccc(Nc3nccc(C(F)(F)F)n3)c2)s1 (centres unmarked) [Example 4A-8] | 100 to 1000 nM | 
CCC(O)(c1ncc(-c2cccc(Nc3nccc(C(F)(F)F)n3)c2)s1)C(F)(F)F (centres unmarked) [Example 4A-9] | < 100 nM | 
CC(O)(c1ncc(-c2cccc(Nc3nccc(C(F)(F)F)n3)c2)s1)C(F)F (centres unmarked) [Example 4A-10] | < 100 nM | 
OC(c1ncc(-c2cccc(Nc3nccc(C(F)(F)F)n3)c2)s1)(C1CCCCC1)C(F)(F)F (centres unmarked) [Example 4A-11] | 1000 to 10000 nM | 
CC(O)(c1ccn(S(=O)(=O)c2ccccc2)c1)c1ncc(-c2cccc(Nc3nccc(C(F)(F)F)n3)c2)s1 (centres unmarked) [Example 4A-12] | 100 to 1000 nM | 
OC(c1ccc(Br)cn1)(c1ncc(-c2cccc(Nc3nccc(C(F)(F)F)n3)c2)s1)C(F)F (centres unmarked) [Example 4A-13] | 100 to 1000 nM | 
CN(C)CC(C)(O)c1ncc(-c2cccc(Nc3nccc(C(F)(F)F)n3)c2)s1 (centres unmarked) [Example 4A-14] | 100 to 1000 nM | 
OC(c1ncc(-c2cccc(Nc3nccc(C(F)(F)F)n3)c2)s1)C1CCCC1 (centres unmarked) [Example 4A-15] | 100 to 1000 nM | 
OC(c1ccoc1)c1ncc(-c2cccc(Nc3nccc(C(F)(F)F)n3)c2)s1 (centres unmarked) [Example 4A-17] | < 100 nM | 
OC(c1cccnc1)c1ncc(-c2cccc(Nc3nccc(C(F)(F)F)n3)c2)s1 (centres unmarked) [Example 4A-18] | 100 to 1000 nM | 
CC(C)n1cc(C(O)c2ncc(-c3cccc(Nc4nccc(C(F)(F)F)n4)c3)s2)cn1 (centres unmarked) [Example 4A-20] | 100 to 1000 nM | 
CC(O)(c1cccnc1)c1ncc(-c2cccc(Nc3nccc(C(F)(F)F)n3)c2)s1 (centres unmarked) [Example 4A-21] | < 100 nM | 
CC(O)(c1cnccn1)c1ncc(-c2cccc(Nc3nccc(C(F)(F)F)n3)c2)s1 (centres unmarked) [Example 4A-22] | < 100 nM | 
CC(O)(c1ncc(-c2cccc(Nc3nccc(C(F)(F)F)n3)c2)s1)C1CCC1 (centres unmarked) [Example 4A-23] | < 100 nM | 
CC(C)C(O)(c1ncc(-c2cccc(Nc3nccc(C(F)(F)F)n3)c2)s1)C(C)C [Example 4A-24] | 100 to 1000 nM | 
CC(=O)OCCC(C)(O)c1ncc(-c2cccc(Nc3nccc(C(F)(F)F)n3)c2)s1 (centres unmarked) [Example 4A-25] | 100 to 1000 nM | 
CCOC(=O)C1(C(C)(O)c2ncc(-c3cccc(Nc4nccc(C(F)(F)F)n4)c3)s2)CC1 (centres unmarked) [Example 4A-26] | 100 to 1000 nM | 
OC(c1cccnc1)(c1nnco1)c1ncc(-c2cccc(Nc3nccc(C(F)(F)F)n3)c2)s1 (centres unmarked) [Example 4A-27] | 100 to 1000 nM | 
CCC(=O)C(O)(CC)c1ncc(-c2cccc(Nc3nccc(C(F)(F)F)n3)c2)s1 (centres unmarked) [Example 4A-28] | 100 to 1000 nM | 
